Test results from patent publication US20060106005A1, “Funtionalised metallocenes as anticancer drugs” (priority 2003, published 2006).
Read-outs that look alike come from different tables or passages of the source.

Assays:
A2780-cis = assay: Anti-proliferative effect on cisplatin-resistant A2780-cis; format: cell-based; settings: for relative sensitivity of A2780 and A2780cis cell lines: relative to A2780 144 hr; for relative sensitivity of cell lines: relative to LoVo; for DIFFERENTIAL: IC50 of 2 relative to Cisplatin
From the text: In order to determine whether these types of complexes overcome platinum resistance in vitro, the anti-proliferative effects of 2 on cisplatin-resistant […] were examined (see Table 3).

A2780 = assay: Sensitivity of cell lines to Cisplatin and Ti compounds (A2780); format: cell-based; settings: for relative sensitivity of cell lines: A2780, relative to LoVo; for DIFFERENTIAL: IC50 of 2 relative to Cisplatin
LS 174T = assay: Sensitivity of cell lines to Cisplatin and Ti compounds (LS 174T); format: cell-based; settings: for relative sensitivity of cell lines: LS-174T, relative to LoVo
LoVo = assay: Sensitivity of cell lines to Cisplatin and Ti compounds (LoVo); format: cell-based; settings: for relative sensitivity of cell lines: LoVo (reference line = 1)
MCF-7 = assay: Sensitivity of cell lines to Cisplatin and Ti compounds (MCF-7); format: cell-based; settings: for relative sensitivity of cell lines: MCF-7, relative to LoVo
[1] = test system: xenografted tumours of the colon, head, breast, rectum, lung and stomach; settings: in vivo; cited from earlier work
LX1 = settings: LX1, histologically unclassified lung tumour; cited from earlier work
[2] = test system: certain cancer cell lines; settings: compared to Cp2TiCl2
[3] = A2780-cis (24 hour), read-out: IC50
[4] = A2780 (24 hour), read-out: IC50
[5] = A2780, exposure time 24 hr, relative to A2780 144 hr
[6] = A2780, exposure time 144 hr (reference = 1)

Compound | IC50 (A2780-cis; [3]) | IC50 (A2780-cis; A2780-cis, read-out: IC50) | relative sensitivity of A2780 and A2780cis cell lines (A2780-cis; A2780cis, exposure time 24 hr) | relative sensitivity of A2780 and A2780cis cell lines (A2780-cis; A2780cis, exposure time 144 hr) | relative sensitivity of cell lines (A2780-cis; A2780cis) | IC50 (A2780; [4]) | relative sensitivity of A2780 and A2780cis cell lines (A2780; [5]) | relative sensitivity of A2780 and A2780cis cell lines (A2780; [6]) | relative sensitivity of cell lines (A2780) | IC50 (A2780; A2780, read-out: IC50) | IC50 (LS 174T; LS 174T) | relative sensitivity of cell lines (LS 174T) | IC50 (LoVo; LoVo) | relative sensitivity of cell lines (LoVo) | relative sensitivity of cell lines (MCF-7) | anti-tumour activity against LX1 (LX1) | also measured
N.N.[Cl][Pt][Cl] [Cisplatin, cisplatin, reference compound] | 5.4 µM | 2.1 µM | 6.59 | 2.56 | 5.7 | 1 µM | 1.22 | 1 | 2.2 | 0.82 µM | 0.5 µM | 1.35 | 0.37 µM | 1 | 24.3 | – | resistance relative to 2 (times more resistant) (A2780-cis; cisplatin-resistant A2780, after 144 hours): 3 times
C1=C[CH]([Ti+2][CH]2C=CC=C2)C=C1.[Cl-].[Cl-].[Ti+2].c1cc[cH-]c1.c1cc[cH-]c1 [Cp2TiCl2, titanocene (bis-cyclopentadienyl titanium)dichloride] | – | – | – | – | – | – | – | – | – | – | – | – | – | – | – | no significant anti-tumour activity | sensitivity of xenografted tumours [1]: significantly sensitive
[Cl-].[Cl-].[V+4].c1cc[cH-]c1.c1cc[cH-]c1 [Cp2VCl2, vanadocene(bis-cyclopentadienyl vanadium)dichloride] | – | – | – | – | – | – | – | – | – | – | – | – | – | – | – | significant activity | –
[Cp(CH2)2NH(CH2)5]2TiCl2.2HCl [compound 2] | 154 µM | 28 µM | 4.97 | 0.90 | 0.45 | 168 µM | 5.42 | 1 | 0.5 | 31 µM | 36 µM | 0.58 | 62 µM | 1 | 1 | – | DIFFERENTIAL (A2780-cis; A2780-cis (24 hour)): 28.5 µM; DIFFERENTIAL (A2780-cis; A2780-cis): 13.3 µM; IC50 (A2780-cis; A2780cis, 7 days, read-out: IC50 (7 days)): 4.3 µM; DIFFERENTIAL (A2780; A2780 (24 hour)): 168 µM; IC50 (A2780; A2780, 7 days, read-out: IC50 (7 days)): 99.1 µM; DIFFERENTIAL (A2780; A2780): 37.8 µM; DIFFERENTIAL (LS 174T; LS 174T, IC50 of 2 relative to Cisplatin): 72 µM; DIFFERENTIAL (LoVo; LoVo, IC50 of 2 relative to Cisplatin): 167.6 µM; potency relative to Cp2TiCl2 (times more potent) [2]: around 10 times; IC50 (MCF-7; MCF-7): 62 µM; DIFFERENTIAL (MCF-7; MCF-7, IC50 of 2 relative to Cisplatin): 6.9 µM
